Inhibition data for one compound are collected here from ChEMBL document CHEMBL4308834, “Novel Allosteric Activators for Ferroptosis Regulator Glutathione Peroxidase 4” (J Med Chem, 2018).

Activity calls are given as the source filed them. No cut-off for these calls is given here.

The target in this assay is T1, Polyunsaturated fatty acid lipoxygenase ALOX15 (Homo sapiens) (UniProt P16050).
T1 sequence (whole entry): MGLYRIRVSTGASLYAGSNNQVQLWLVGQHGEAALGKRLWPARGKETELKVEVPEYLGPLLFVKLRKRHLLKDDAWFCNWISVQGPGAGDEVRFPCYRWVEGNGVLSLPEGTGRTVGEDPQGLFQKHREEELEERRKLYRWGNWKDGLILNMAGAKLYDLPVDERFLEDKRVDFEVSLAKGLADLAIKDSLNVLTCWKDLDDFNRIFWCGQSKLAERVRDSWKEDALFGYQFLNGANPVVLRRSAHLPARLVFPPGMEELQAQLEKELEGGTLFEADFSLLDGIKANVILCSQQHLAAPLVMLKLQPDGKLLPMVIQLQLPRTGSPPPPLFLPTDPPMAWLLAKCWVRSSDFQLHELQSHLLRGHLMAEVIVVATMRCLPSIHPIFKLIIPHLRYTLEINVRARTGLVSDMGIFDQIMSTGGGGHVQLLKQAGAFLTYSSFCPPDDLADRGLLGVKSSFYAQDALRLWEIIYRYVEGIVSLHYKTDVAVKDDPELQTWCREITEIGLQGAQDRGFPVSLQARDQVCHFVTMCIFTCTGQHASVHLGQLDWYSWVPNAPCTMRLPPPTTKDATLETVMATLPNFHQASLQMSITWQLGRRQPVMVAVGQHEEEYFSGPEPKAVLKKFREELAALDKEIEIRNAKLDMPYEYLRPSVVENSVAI
The experiment in a line: Inhibition of 15-LOX (unknown origin) at 500 uM preincubated for 1 mins followed by arachidonic acid substrate addition by spectrophotometric method.

With `NS(=O)(=O)c1ccc(NC(S)=NCc2ccc(Cl)cc2)cc1`, the inhibition result was “inactive”.
